From patent US20190054054A1, “Methods reducing or preventing oxidation of high density lipoprotein (HDL)” (Amarin Pharmaceuticals Ireland Limited, priority 2017, published 2019)

Assays:
[1] = system: HUVECs exposed to oxLDL; test: NO and ONOO^− release from HUVECs exposed to oxLDL, nanosensors (Example 8); format: cell-based, human
Protocol: Human umbilical vein endothelial cells (HUVECs) were isolated into primary cultures from female donors by Clonetics (San Diego, Calif.) and purchased as proliferating cells. All cell culture donors were healthy, with no pregnancy or prenatal complications. […] The confluent cells (4 to 5×10^5 cells/35 mm dish) were placed with minimum essential medium containing 3 mM L-arginine and 0.1 mM BH4 [(6R)-5,6,7,8-tetrahydrobiopterin]. Before experimental use, the cells (from second or third passage) were rinsed twice with Tyrode-HEPES buffer with 1.8 mM CaCl2).
The omega-3 fatty acids (O3FAs) cis-5,8,11,14,17-eicosapentaenoic acid (EPA) and docosahexaenoic acid (DHA) were purchased from Sigma-Aldrich (St. Louis, Mo.) and prepared initially at 11 mM in redistilled ethanol. Primary and secondary O3FA stock solutions were prepared and stored under argon at −20° C.
The oxLDL causes eNOS uncoupling and endothelial dysfunction to reproduce disease-like conditions. 25 Venous blood from healthy normolipidemic volunteers was collected into Na-EDTA (1 mg/mL blood) vacuum tubes after a 12-hour fast. Plasma was immediately separated by centrifugation at 3,000 g for 10 minutes at 4° C.
Tris-NaCl buffer was added to the dialyzed LDL to adjust the protein concentration to 30 mg/mL. A 1-mL aliquot of 20 μM CuSO4 was added to 1 mL of dialyzed normal LDL.
Oxidation was monitored by the use of measurements of TBARS. Briefly, LDL was incubated with thiobarbituric acid (0.5 wt/vol, in H2SO4, 50 mM) for 30 minutes at 100° C. […] TBARS concentration was determined as malondialdehyde (MDA) equivalents with the use of an MDA standard curve.
Concurrent measurements of NO and ONOO^− were performed with tandem electrochemical nanosensors combined into one working unit with a total diameter of 200-400 nm. Their design was based on previously developed and chemically modified carbon-fiber technology. Each of the nanosensors was made by depositing a sensing material on the tip of a carbon fiber (length 4 to 5 μm, diameter 100-200 nm). The fibers were sealed with nonconductive epoxy and electrically connected to copper wires with conductive silver epoxy. Conductive films of polymeric Ni(II) tetrakis (3-methoxy-4-hydroxyphenyl) porphyrin and Mn(III) [2.2] paracyclophanylporphyrin were used for the NO and ONOO^− sensors, respectively.
The amperometric method (with a response time of 0.1 ms) provides a quantitative signal (current) that is directly proportional to changes (from basal levels) in NO or ONOO^− concentration. Amperometric measurements were performed with a Gamry III double-channel potentiostat. Basal NO or ONOO^− levels were measured by differential pulse voltammetry in separate experiments.
All measurements of NO and ONOO^− were performed on intact endothelial cells. The NO/ONOO^− nanosensor module was positioned 5±2 μm from the surface of each individual endothelial cell using a computer-controlled M3301 micromanipulator (x-y-z resolution of 0.2 μm) and microscope (both from World Precision Instruments, Berlin, Germany) fitted with a CD camera.
Endothelial basal media was used for all the treatments. Controls were supplied with an equivalent volume of endothelial basal media.
Data are presented as mean±S.D. for (N) separate samples or experiments. Differences between groups were analyzed using the two-tailed, Student t-test (for comparisons between only two groups) or ANOVA followed by Student-Newman-Keuls multiple comparisons post-hoc analysis (for comparisons between three or more groups). Only differences with probability values less than 0.05 were considered significant.

[2] = Membrane cholesterol domain peak intensity, x-ray diffraction of POPC/cholesterol membranes (Example 9); settings: 1.5:1 C/P mole ratio; for % change Vs control / Relative Cholesterol Domain Preak Intensity: drug-to-phospholipid mole ratio 1:30; for Relative Cholesterol Domain Preak Intensity: POPC and cholesterol
Protocol: The fatty acid stock solutions were stored at −20° C. until use. […] Samples were shell-dried under nitrogen gas and placed under vacuum for 3 hours to remove residual solvent at room temperature. After desiccation, each sample was resuspended in saline buffer (0.5 mM HEPES, 154 mM NaCl, pH 7.3) to yield a final phospholipid concentration of 2.5 mg/mL. Lipid suspensions were then vortexed for 3 minutes at ambient temperature to form MLVs. Membrane lipid vesicles were oriented for x-ray diffraction analysis as described by others (e.g., Herbette et al., Biophys. […] Briefly, a 100 μL aliquot of each MLV preparation (containing 250 μg MLV) was transferred to a Lucite® sedimentation cell fitted with an aluminum foil substrate designed to collect MLVs into a single membrane pellet upon centrifugation. […] After centrifugal orientation, sample supernatants were aspirated and aluminum foil substrates, each supporting a single membrane pellet, were removed from the sedimentation cells. Sample pellets were dried for 5-10 minutes at ambient conditions, mounted onto curved glass supports, and placed in hermetically-sealed, brass or glass containers (for immediate analysis or temporary storage, respectively). All x-ray diffraction experiments were conducted at 20° C., 74% relative humidity. The latter was established by exposing membrane samples to saturated solutions of L-(+)-tartaric acid (K2C4H4O6.½H2O) for at least 1 hour prior to experimental analysis. Oriented membrane samples were aligned at grazing incidence with respect to a collimated, mono-chromatic CuKα x-ray beam (Kα1 and Kα2 unresolved; λ=1.54 Å) produced by a Rigaku Rotaflex RU-200, high-brilliance microfocus generator (Rigaku-MSC, The Woodlands, Tex.) as previously described (Mason et al., Biophys. J., vol. 55(4), pages 769-778 (1989)). The samples were initially subjected to x-ray diffraction analysis at least 12 hours after formation of the membrane pellets and retested for up to several days. Analytical x-rays were generated by electron bombardment of a rotating copper anode and are filtered through a thin nickel foil to provide monochromatic radiation (λ=1.54 Å). Collimation of the x-ray beam was achieved using a single Franks mirror. Diffraction data were collected on a one-dimensional, position-sensitive electron detector (Hecus X-ray Systems, Graz, Austria) at a sample-to-detector distance of 150 mm from the sample site. The d-space for any given membrane multi bilayer is a measurement of the unit cell periodicity of the membrane lipid bilayer (e.g., the distance from the center of one lipid bilayer to the next including surface hydration), and is calculated from Bragg's Law, h λ=2 d sin θ, where h is the diffraction order, λ is the wavelength of the x-ray radiation (1.54 Å), d is the membrane lipid bilayer unit cell periodicity, and θ is the Bragg angle equal to one-half the angle between the incident beam and scattered beam. […] Routines written in Origin 8.6 (OriginLab Corporation, Northampton, Mass.) were used to determine total peak area (associated with all diffraction peaks in a given pattern) against which the second-order cholesterol domain peak was normalized. The raw data collected in this study was normalized using internal. Data were presented as mean+S.E.M. for (N) separate samples or treatment groups. Differences between groups were analyzed using the two-tailed, Student's t-test (for comparisons between only two groups) or ANOVA followed by Dunnett or Student-Newman-Keuls multiple comparisons post-hoc analysis (for comparisons between three or more groups). Alpha error was set to 0.05 in this study.

[3] = system: unfractionated LDL; test: Copper-induced oxidation of unfractionated LDL, TBARS after 2 hr (Example 6); format: biochemical, human
[4] = oxLDL 20 min, then treatment for 1 hour, EPA 10 μM, ATM 1.0 μM
[5] = EPA to phospholipid mole ratio 1:60
[6] = EPA to phospholipid mole ratio 1:90
[7] = treatment 'EPA + oxLDL' (Table 1)

Structure (SMILES)	NO [1, 4]	NO/ONOO^− Ratio [1, 4]	ONOO^− [1, 4]	% change Vs control [2]	Relative Cholesterol Domain Preak Intensity [2]	effect on cholesterol domains (in words) ([2]; 1:30)	other results
CC/C=C\C/C=C\C/C=C\C/C=C\C/C=C\C/C=C\CCC(=O)O [DHA, docosahexaenoic acid]	567 ± 103 nM	3.39 ± 0.72	167 ± 18				
CC/C=C\C/C=C\C/C=C\C/C=C\C/C=C\CCCC(=O)O [EPA, cis-5,8,11,14,17-eicosapentaenoic acid]	423 ± 163 nM	2.24 ± 0.91	189 ± 25	−65.5 ± 17.1%	14.6±5		reduction in cholesterol domain peaks as compared to vehicle treatment ([2]; 1:30): 65%; % Change (vs. Control) [2, 5]: −30.2 ± 27.9%; Relative Cholesterol Domain Peak Intensity [2, 5]: 29.5 ± 10.9; % Change (vs. Control) [2, 6]: −15.0 ± 12.6%; Relative Cholesterol Domain Peak Intensity [2, 6]: 36.0 ± 3.1; reduction of TBARS levels ([3]; 10.0 μM, unfractionated LDL): 17%; increase in NO release in ECs exposed to oxLDL ([1]; as compared to vehicle, EPA 10 μM, ATM 1.0 μM): 45%; NO [1, 7]: 663 ± 50; NO/ONOO^− Ratio [1, 7]: 2.68 ± 0.28; ONOO^− [1, 7]: 247 ± 17
Cc1ccc(C)c(OCCCC(C)(C)C(=O)O)c1 [gemfibrozil]	192 ± 34 nM	0.72 ± 0.16	266 ± 34	11%	46.9±12.6	no significant changes in cholesterol domain size	% change Vs control ([2]; listed as Gemfib): 10.9 ± 43.3%; Relative Cholesterol Domain Preak Intensity ([2]; listed as Gemfib): 46.9 ± 12.6
O=C(O)c1cccnc1 [niacin, nicotinic acid]	431 ± 100 nM	2.00 ± 0.52	215 ± 25	−35%	27.5±12.2	no significant changes in cholesterol domain size	% change Vs control ([2]; listed as Niacin): −35.0 ± 30.8%; Relative Cholesterol Domain Preak Intensity ([2]; listed as Niacin): 27.5 ± 12.2
Cc1c(C)c2c(c(C)c1O)CC[C@@](C)(CCC[C@H](C)CCC[C@H](C)CCCC(C)C)O2 [vitamin E, α-tocopherol]							effect on LDL oxidation ([3]; 1.0 μM to 10.0 μM): did not inhibit LDL oxidation at any concentration
